The source made the active and inactive calls.
Legend:
[1] = Luminescence Cell-Based Dose Response HTS to Identify Activators of Luciferase Translation or Activity in H4 […] Cells. [Related pubchem assays: 1829 (Project Summary), 1814 (Primary HTS)]; assay type: functional
[2] = test system: H4; test: Luminescence Cell-Based Dose Response HTS to Identify Activators of 5'UTR Stem-Loop Driven Prion Protein mRNA Translation in H4 Neuroglioblastoma Cells. [Related pubchem assays: 1829 (Project Summary), 1814 (Primary HTS)]; assay type: functional; settings: Homo sapiens
[3] = Luminescence Cell-Based Dose Confirmation HTS to Identify Activators of 5'UTR Stem-Loop Driven Alpha-Synuclein mRNA Translation in H4 Neuroglioblastoma Cells. [Related pubchem assays: 1829 (Project Summary), 1814 (Primary HTS)]; assay type: functional
[4] = molecular target: Mitogen-activated protein kinase 10 (Homo sapiens, UniProt P53779); test: Dose response biochemical screening assay for inhibitors of c-Jun N-Terminal Kinase 3 (JNK3). [Related pubchem assays: 746 ]
[5] = molecular target: T1, Bcl-2-like protein 10 (Homo sapiens, UniProt Q9HD36); test: displacers of TR3 peptide from Bcl-B, primary screen, selectivity assay for Bfl-1 inhibitor project, biochemical, fluorescence polarization, FITC-TR3 peptide (AID 748);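 note: fluorescence polarization from a fluorescein-labelled TR3 peptide binding purified Bcl-B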
T1 sequence (Q9HD36 whole entry): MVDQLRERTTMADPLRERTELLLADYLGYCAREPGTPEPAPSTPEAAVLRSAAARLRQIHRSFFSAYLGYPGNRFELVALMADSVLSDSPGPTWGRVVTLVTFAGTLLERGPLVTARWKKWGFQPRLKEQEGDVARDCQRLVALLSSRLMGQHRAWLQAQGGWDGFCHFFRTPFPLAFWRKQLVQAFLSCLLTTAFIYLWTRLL

[6] = molecular target: 14-3-3 protein gamma (Homo sapiens, UniProt P61981); test: modulators of 14-3-3 gamma client binding – dose response (AID 711); assay type: functional
[7] = molecular target: DNA dC->dU-editing enzyme APOBEC-3G (Homo sapiens, UniProt Q9HC16); assay type: functional;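 note: Dose-response counterscreen measuring inhibition of APOBEC3G DNA deaminase activity, run while confirming APOBEC3A inhibitors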
[8] = molecular target: DNA dC->dU-editing enzyme APOBEC-3A (Homo sapiens, UniProt P31941); test: Dose Response confirmation of small molecule APOBEC3A DNA Deaminase Inhibitors via a fluorescence-based single-stranded DNA deaminase assay. [Related pubchem assays (depositor defined):AID493011, AID493024]; assay type: functional
[9] = molecular target: T2, Estrogen receptor beta (Homo sapiens, UniProt Q92731);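 note: recombinant ER-beta bound to coactivator SRC1 peptide in presence of estradiol agonist; inhibitors block coactivator peptide binding and lower the FRET signal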
[10] = molecular target: E3 ubiquitin-protein ligase UHRF1 (Homo sapiens, UniProt Q96T88); test: Counterscreen for inhibitors of 5-meCpG-binding domain protein 2 (MBD2): TRFRET-based biochemical high throughput dose response assay to identify inhibitors of binding of ubiquitin-like with PHD and ring finger domains 1 (UHRF1) to methylated oligonucleotide.
[11] = molecular target: T2, Estrogen receptor beta; test: ERβ–SRC-3 coactivator interaction inhibitors, confirmation, orthogonal assay, biochemical, ELISA, streptavidin-HRP readout (AID 1060)
[12] = molecular target: T3, Estrogen receptor (Homo sapiens, UniProt P03372);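 note: potency for inhibiting coactivator peptide recruitment to the receptor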
T3 sequence (P03372 whole entry): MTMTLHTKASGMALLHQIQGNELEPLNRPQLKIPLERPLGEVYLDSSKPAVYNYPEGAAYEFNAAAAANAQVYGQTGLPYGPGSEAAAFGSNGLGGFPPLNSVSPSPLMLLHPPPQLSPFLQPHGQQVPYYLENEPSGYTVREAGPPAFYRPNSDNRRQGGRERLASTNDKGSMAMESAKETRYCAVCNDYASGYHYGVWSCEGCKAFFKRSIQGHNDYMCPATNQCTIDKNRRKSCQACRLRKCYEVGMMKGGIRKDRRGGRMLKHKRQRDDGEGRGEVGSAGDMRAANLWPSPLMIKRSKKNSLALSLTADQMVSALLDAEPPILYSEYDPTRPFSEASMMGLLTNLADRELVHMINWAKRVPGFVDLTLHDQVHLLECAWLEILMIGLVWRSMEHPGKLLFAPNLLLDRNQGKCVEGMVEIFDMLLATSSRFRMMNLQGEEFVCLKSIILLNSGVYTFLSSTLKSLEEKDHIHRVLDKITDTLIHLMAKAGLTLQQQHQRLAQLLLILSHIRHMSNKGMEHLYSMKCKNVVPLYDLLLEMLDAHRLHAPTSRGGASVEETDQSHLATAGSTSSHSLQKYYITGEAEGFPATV

[13] = molecular target: T4, Carboxy-terminal domain RNA polymerase II polypeptide A small phosphatase 1 (Homo sapiens, UniProt Q9GZU7); test: inhibitors of CTDSP1, concentration-response testing, biochemical assay, absorbance-based, actives from ultra-high-throughput screening (AID 540297); assay type: functional
T4 sequence (Q9GZU7 whole entry): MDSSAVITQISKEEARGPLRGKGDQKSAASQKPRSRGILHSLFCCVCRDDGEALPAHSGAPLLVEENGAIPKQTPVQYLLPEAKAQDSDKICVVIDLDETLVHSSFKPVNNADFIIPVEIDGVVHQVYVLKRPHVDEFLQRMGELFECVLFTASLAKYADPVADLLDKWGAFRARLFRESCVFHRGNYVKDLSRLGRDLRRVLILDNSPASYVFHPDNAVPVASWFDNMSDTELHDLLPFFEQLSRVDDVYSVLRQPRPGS

[14] = growth suppression of beta-catenin-knockout colon cells, dose response, cell-based, HCT116, human colon tumor (AID 1045); assay type: functional;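 note: HCT116 colon tumor cells with beta catenin knocked out; cells exposed to compound for 60 hours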
[15] = growth suppression of PTEN-null colon cells, dose response, cell-based, HCT116 PTEN knockout (AID 1047); assay type: functional;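 note: HCT116 colon tumor cells with PTEN knocked out; cells exposed to compound for 60 hours before readout; potency for loss of cell viability measured by luminescence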
[16] = molecular target: Muscarinic acetylcholine receptor M1 (Rattus norvegicus, UniProt P08482); test: rat M1 positive allosteric modulator potency, dose response, cell-based, calcium mobilization, CHO-K1, ACh EC20 (AID 2425); assay type: functional
[17] = Inhibition of T. cruzi Tulahuen strain amastigotes in L-6 muscle cells Measured in Cell-Based and Microorganism Combination System Using Plate Reader - 2138-03_Inhibitor_Dose_CherryPick_Activity.; assay type: functional; settings: Rattus norvegicus, L6
[18] = Inhibition of Plasmodium falciparum NF54 Measured in Cell-Based System Using Plate Reader - 2138-11_Inhibitor_Dose_CherryPick_Activity.; assay type: functional
[19] = intracellular Trypanosoma cruzi inhibitors in host cells – cell-based, plate reader, cherry-pick samples, set 3, dose response (AID 651818); assay type: functional;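 note: compounds incubated with infected cells for about four days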
[20] = growth inhibition of intracellular T. cruzi, dose response, cell-based, plate reader, dry powder samples (AID 651845); assay type: functional
[21] = T. cruzi intracellular amastigote growth inhibition, dose response, imaging, CA-I/72 strain, bovine embryo skeletal muscle, dry powder (AID 651885); assay type: functional, cell-based
[22] = T. b. rhodesiense proliferation inhibition, dose response, STIB900 strain, plate reader, cherry pick (AID 651893); assay type: functional, cell-based; settings: Trypanosoma brucei
[23] = L. donovani amastigote growth inhibition, dose response, axenic amastigotes, plate reader, cherry pick (AID 651891); assay type: functional, cell-based; settings: Leishmania donovani
[24] = cytotoxicity in L-6 rat myocytes, dose response, cytotoxicity control, cell-based, plate reader, cherry-pick (AID 651896); assay type: functional
[25] = T. cruzi growth inhibition in host cells, dose response, cell-based, plate reader, dry powder, set 2 (AID 652275); assay type: functional
[26] = ZM109 Env clade C HIV-1 fusion inhibitors, dose response, HeLa effector, CEM target cells, luciferase, cherry-pick (AID 652058); assay type: functional, cell-based
[27] = inhibitors of HIV Env-driven cell fusion, dose response, cherry-pick (AID 652057); assay type: functional, cell-based
[28] = HIV Env cell-cell fusion inhibitors, dose response, HIV entry, plate reader, dry powder (AID 687023); assay type: functional, cell-based
[29] = CEM21 cell cytotoxicity, dose response, cytotoxicity control, plate reader, dry powder (AID 687026); assay type: functional, cell-based
[30] = A Cell-Based Confirmatory Screen for Compounds that Inhibit VEEV, TC-83 (5).; assay type: functional
[31] = A375 melanoma cell cytotoxicity, dose response, counter-screen for MITF inhibitor project, CellTiter-Glo luminescence, dry powder, set 2 (AID 624489); assay type: functional, cell-based; settings: A-375;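 note: actives are compounds lowering A375 viability meaning general cytotoxicity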
[32] = A375 melanoma cell viability loss, dose response, counter-screen for MITF inhibitor project, CellTiter-Glo luminescence, dry powder, set 4 (AID 624364); assay type: functional, cell-based; settings: A-375;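 note: A375 melanoma cells are MITF independent so this is a counter screen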
[33] = molecular target: T5, Potassium channel subfamily K member 9 (Homo sapiens, UniProt Q9NPC2); test: KCNK9 (TASK3) current inhibition by patch clamp, SAR follow-up, selectivity assay for TASK1 (KCNK3) inhibitor project, cell-based, automated electrophysiology (AID 652210); assay type: functional
[34] = molecular target: Potassium channel subfamily K member 3 (Rattus norvegicus, UniProt O54912); test: SAR analysis for the identification of selective inhibitors of the two-pore domain potassium channel TASK1(KCNK3):Automated Electrophysiology.; assay type: functional
[35] = molecular target: T5, Potassium channel subfamily K member 9; test: TASK3 (KCNK9) channel inhibitors, thallium flux, SAR follow-up, selectivity assay for TASK1 inhibitor project, cell-based, FluxOR thallium flux, concentration-response (AID 652211); assay type: functional;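 note: potency is for inhibitors of the channel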
[36] = molecular target: Potassium channel subfamily K member 3 (Homo sapiens, UniProt O14649); test: TASK1 (KCNK3) potassium channel inhibitors, SAR follow-up, CHO cells, FluxOR thallium flux (AID 652212); assay type: functional
[37] = growth inhibition of replicating M. tuberculosis, dose response, counter-screen, dry powder, IC90 (AID 651617); assay type: functional; settings: Mycobacterium tuberculosis
[38] = inhibitors of non-replicating M. tuberculosis, dose response, luciferase, dry powder (AID 651620); assay type: functional; settings: Mycobacterium tuberculosis
[39] = inhibitors of non-replicating M. tuberculosis, dose response, luciferase, dry powder (AID 651619); assay type: functional; settings: Mycobacterium tuberculosis
[40] = cytotoxicity in HeLa cells, dose response, cytotoxicity control, cell-based, plate reader, dry powder (AID 651946); assay type: functional
[41] = molecular target: NAD-dependent protein deacylase sirtuin-5, mitochondrial (Homo sapiens, UniProt Q9NXA8); test: SIRT5 deacylase inhibitors, dose response, biochemical, fluorescence imaging, cherry-pick, set 6 (AID 720597)
[42] = molecular target: RNA-editing ligase 1, mitochondrial (Trypanosoma brucei brucei, UniProt P86926); test: TbREL1 ligase inhibitors, dose response, biochemical, fluorescence, Trypanosoma brucei (AID 1117295); assay type: functional
[43] = molecular target: T6, Low molecular weight phosphotyrosine protein phosphatase (Homo sapiens, UniProt P24666); test: LMPTP phosphatase inhibitors, dose response, biochemical, OMFP substrate, fluorescence intensity, set 2 (AID 743307); assay type: functional
[44] = molecular target: T6, Low molecular weight phosphotyrosine protein phosphatase; test: LMPTP phosphatase inhibitors, colorimetric pNPP readout, dose response, orthogonal assay, biochemical, absorbance, pNPP substrate, LMPTP-A isoform, set 2 (AID 743308); assay type: functional

T6 sequence (P24666 whole entry, canonical isoform): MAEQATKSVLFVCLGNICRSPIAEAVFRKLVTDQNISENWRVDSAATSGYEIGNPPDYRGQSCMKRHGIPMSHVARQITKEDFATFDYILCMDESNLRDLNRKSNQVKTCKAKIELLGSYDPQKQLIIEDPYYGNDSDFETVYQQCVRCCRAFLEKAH
T2 sequence (Q92731 whole entry, the tested form may be a part): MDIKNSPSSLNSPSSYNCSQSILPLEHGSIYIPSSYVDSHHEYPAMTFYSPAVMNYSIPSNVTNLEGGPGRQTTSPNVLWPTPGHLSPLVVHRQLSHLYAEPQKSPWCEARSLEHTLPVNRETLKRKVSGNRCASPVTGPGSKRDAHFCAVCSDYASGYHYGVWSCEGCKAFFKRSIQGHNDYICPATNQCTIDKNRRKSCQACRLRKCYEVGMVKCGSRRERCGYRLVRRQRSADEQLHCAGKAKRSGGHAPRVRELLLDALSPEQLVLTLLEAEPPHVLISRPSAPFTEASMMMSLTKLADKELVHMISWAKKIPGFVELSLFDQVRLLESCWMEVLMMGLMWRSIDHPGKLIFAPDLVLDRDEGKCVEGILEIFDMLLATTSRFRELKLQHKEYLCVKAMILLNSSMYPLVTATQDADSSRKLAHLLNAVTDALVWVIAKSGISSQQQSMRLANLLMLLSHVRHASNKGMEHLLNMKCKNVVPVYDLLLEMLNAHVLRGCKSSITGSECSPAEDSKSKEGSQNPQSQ
T5 sequence (Q9NPC2 whole entry, the tested form may be a part): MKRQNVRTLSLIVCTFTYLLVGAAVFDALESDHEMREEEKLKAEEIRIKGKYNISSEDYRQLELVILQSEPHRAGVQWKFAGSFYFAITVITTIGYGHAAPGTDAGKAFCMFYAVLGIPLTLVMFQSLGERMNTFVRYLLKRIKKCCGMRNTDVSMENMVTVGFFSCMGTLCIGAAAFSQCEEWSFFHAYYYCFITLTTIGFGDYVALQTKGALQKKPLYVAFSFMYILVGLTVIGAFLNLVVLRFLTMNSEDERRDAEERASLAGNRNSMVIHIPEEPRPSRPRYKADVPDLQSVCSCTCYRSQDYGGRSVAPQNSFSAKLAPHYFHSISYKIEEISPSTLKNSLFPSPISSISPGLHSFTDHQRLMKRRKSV
Potassium channel subfamily K member 3 (Homo sapiens, UniProt O14649), sequence (O14649 whole entry): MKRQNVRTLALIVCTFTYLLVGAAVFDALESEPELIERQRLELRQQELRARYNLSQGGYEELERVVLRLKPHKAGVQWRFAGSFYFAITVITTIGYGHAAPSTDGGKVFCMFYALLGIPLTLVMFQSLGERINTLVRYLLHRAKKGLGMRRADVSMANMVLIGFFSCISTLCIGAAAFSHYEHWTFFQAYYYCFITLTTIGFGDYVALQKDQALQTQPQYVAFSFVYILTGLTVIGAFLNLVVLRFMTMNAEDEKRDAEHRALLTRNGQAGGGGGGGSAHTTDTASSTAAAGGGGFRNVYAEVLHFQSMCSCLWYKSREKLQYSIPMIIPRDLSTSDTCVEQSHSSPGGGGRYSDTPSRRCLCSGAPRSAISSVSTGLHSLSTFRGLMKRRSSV
Mitogen-activated protein kinase 10, sequence (P53779 whole entry): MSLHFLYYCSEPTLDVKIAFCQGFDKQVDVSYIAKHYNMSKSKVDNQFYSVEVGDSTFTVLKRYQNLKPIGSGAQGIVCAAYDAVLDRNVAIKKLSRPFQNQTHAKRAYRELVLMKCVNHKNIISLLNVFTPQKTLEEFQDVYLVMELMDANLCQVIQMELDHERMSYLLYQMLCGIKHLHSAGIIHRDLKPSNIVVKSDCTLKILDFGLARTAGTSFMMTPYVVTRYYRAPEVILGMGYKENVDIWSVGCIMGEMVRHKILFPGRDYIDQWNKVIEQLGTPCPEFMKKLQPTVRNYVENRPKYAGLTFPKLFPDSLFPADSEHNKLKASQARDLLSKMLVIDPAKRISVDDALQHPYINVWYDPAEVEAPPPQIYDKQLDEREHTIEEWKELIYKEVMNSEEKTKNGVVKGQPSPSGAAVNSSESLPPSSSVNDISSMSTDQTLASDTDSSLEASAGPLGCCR
14-3-3 protein gamma, sequence (P61981 whole entry): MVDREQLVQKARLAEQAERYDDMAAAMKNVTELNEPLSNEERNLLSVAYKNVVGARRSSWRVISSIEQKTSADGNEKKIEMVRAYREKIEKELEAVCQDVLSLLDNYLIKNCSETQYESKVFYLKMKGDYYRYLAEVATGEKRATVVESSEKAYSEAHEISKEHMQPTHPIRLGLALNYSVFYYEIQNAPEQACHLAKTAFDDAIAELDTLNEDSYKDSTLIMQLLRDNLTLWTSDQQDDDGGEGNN
NAD-dependent protein deacylase sirtuin-5, mitochondrial, sequence (Q9NXA8 whole entry): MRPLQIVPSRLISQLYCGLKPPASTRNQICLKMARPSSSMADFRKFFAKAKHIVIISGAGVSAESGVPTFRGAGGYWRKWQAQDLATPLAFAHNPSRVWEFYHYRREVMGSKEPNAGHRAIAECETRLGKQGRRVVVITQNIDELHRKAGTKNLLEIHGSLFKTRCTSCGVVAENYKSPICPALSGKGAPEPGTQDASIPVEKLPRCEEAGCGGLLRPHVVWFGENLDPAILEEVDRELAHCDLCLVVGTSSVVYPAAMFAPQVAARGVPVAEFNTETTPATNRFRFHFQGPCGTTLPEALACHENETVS
DNA dC->dU-editing enzyme APOBEC-3G, sequence (Q9HC16 whole entry): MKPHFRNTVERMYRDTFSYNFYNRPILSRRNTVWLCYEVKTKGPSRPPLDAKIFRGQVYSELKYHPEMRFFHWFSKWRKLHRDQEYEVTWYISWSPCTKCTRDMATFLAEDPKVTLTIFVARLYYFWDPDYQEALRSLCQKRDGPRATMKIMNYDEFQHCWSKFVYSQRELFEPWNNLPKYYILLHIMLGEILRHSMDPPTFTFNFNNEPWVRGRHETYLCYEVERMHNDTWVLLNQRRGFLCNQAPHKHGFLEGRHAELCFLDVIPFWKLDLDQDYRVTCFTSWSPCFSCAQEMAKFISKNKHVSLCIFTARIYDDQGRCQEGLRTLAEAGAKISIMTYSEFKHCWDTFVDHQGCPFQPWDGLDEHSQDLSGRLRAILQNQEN
E3 ubiquitin-protein ligase UHRF1, sequence (Q96T88 whole entry, the tested form may be a part): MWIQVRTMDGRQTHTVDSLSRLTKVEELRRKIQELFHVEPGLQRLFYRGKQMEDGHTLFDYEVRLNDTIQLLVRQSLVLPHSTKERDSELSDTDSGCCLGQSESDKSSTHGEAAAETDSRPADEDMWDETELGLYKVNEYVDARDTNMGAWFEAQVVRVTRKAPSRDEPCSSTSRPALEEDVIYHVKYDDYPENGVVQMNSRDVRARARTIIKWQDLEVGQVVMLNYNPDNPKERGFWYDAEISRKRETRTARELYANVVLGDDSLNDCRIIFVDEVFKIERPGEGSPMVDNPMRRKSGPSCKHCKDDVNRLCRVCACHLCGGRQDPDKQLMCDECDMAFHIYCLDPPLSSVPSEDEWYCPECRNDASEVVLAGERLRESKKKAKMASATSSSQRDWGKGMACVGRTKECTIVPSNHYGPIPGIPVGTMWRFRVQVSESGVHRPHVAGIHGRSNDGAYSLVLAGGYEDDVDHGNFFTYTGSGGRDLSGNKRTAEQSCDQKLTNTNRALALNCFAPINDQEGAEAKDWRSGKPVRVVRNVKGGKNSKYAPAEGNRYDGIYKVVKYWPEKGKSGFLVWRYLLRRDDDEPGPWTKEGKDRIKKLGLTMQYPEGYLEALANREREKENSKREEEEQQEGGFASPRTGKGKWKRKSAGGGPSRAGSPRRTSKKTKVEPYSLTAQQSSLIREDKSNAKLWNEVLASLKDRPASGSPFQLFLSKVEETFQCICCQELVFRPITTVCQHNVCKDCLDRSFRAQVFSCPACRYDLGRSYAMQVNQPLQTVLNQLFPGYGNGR
RNA-editing ligase 1, mitochondrial, sequence (P86926 whole entry): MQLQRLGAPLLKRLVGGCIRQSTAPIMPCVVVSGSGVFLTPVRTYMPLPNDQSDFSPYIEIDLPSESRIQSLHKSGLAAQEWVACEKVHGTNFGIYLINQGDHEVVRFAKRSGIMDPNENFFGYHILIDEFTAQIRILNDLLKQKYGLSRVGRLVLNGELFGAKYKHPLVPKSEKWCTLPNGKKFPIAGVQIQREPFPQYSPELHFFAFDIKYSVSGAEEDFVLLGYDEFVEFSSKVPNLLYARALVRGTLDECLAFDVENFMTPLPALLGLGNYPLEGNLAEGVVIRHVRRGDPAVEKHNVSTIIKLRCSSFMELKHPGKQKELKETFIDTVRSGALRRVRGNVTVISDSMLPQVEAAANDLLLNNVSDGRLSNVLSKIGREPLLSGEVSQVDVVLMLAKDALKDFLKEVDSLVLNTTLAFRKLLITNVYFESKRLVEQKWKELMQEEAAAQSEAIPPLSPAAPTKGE
DNA dC->dU-editing enzyme APOBEC-3A, sequence (P31941 whole entry): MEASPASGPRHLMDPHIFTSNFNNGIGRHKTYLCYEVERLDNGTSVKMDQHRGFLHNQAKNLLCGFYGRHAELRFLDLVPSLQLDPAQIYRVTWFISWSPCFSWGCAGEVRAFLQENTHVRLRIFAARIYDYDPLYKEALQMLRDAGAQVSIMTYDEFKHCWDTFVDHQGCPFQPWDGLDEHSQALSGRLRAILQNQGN
Potassium channel subfamily K member 3 (Rattus norvegicus, UniProt O54912), sequence (O54912 whole entry, the tested form may be a part): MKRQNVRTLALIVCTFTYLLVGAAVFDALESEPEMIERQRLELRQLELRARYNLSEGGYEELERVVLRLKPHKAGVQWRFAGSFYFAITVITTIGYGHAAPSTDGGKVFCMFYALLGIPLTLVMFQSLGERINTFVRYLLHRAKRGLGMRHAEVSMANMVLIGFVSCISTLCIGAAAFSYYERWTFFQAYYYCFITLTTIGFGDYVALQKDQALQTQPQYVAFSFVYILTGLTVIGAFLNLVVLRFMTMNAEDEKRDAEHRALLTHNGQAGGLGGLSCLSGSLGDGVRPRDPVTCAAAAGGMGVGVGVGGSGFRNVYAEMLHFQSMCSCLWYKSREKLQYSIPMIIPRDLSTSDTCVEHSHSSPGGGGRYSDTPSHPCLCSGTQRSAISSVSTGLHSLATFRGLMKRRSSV

CC1=CC(=C2C(=O)c3ccccc3C2=O)C=C(C)N1C
EC50 [1]: 29.3 µM (active)
EC50 [2]: 57.2 µM (active)
EC50 [3]: 53.3 µM (active)
IC50 [4]: 42.1 µM (not active)

Cc1nc2ccc(C(=O)O)cc2c2c1CC(C)S2 (centres undefined)
IC50 [5]: > 100 µM (inactive)
IC50 [6]: 25.7 µM (active)
IC50 [7]: 26.3 µM (active)
IC50 [8]: 16.2 µM (active)

O=C(Cc1coc2cc3c(cc12)CCC3)OCc1cc(=O)n2c(n1)sc1ccccc12
IC50 [9]: 3.05 µM (active)
IC50 [10]: > 43.8 µM (inactive)
IC50 [11]: 17.6 µM (not active)
IC50 [12]: 4.83 µM (active)
IC50 [13]: 4.58 µM (active)

Cc1cc(NC(=O)CS(=O)(=O)c2cn(Cc3ccccc3Cl)c3ccccc23)no1
EC50 [14]: 72.8 µM (active)
EC50 [15]: 41.3 µM (active)
EC50 [16]: 9.13 µM (active)

C[C@@H]1CN([C@H](C)CO)C(=O)c2cccc(NC(=O)c3ccncc3)c2O[C@H]1CN(C)Cc1ccccc1
IC50 [17]: 5.64 µM (inactive)
IC50 [18]: 5.64 µM (inactive)
AC50 [19]: 0.08 µM (active)
AC50 [20]: 0.064 µM (active)
IC50 [21]: 0.0144 µM (active)
IC50 [22]: 6.14 µM (inactive)
IC50 [23]: > 100 µM (inactive)
IC50 [24]: > 100 µM (inactive)
AC50 [25]: 0.00561 µM (active)

C[C@@H]1CN([C@@H](C)CO)C(=O)c2cccc(NS(=O)(=O)c3ccc(F)cc3)c2O[C@@H]1CN(C)Cc1ccc(C(F)(F)F)cc1
AC50 [26]: 0.451 µM (active)
AC50 [27]: 0.295 µM (active)
AC50 [28]: 4.05 µM (active)
AC50 [29]: 43.9 µM (active)

O=c1c2cc([N+](=O)[O-])ccc2nc(CN2CCCCC2)n1-c1ccccc1F
IC50 [30]: 4.7 µM (active)

CC(=O)NC1=C(c2ccc3c(c2)oc2ccccc23)C(=O)c2ccccc2C1=O
AC50 [31]: 14.9 µM (active)
AC50 [32]: 26.9 µM (active)

CCOc1ccccc1NC(=O)c1cccc(NC(=O)CC2CCCC2)c1
IC50 [33]: 3.9 µM (active)
IC50 [34]: 0.32 µM (active)
IC50 [35]: 4.17 µM (active)
IC50 [36]: 0.161 µM (active)

Cc1cccc(CSc2nnc(-c3ccc(Cl)cc3)o2)n1
IC90 [37]: 125 µM (active)
IC90 [38]: 2 µM (active)
IC90 [39]: 2 µM (active)
AC50 [40]: > 24 µM (inactive)

CCCNC(=O)Nc1ccc2c(c1)C(=O)N(C)[C@H]1CC[C@H](CC(=O)NCC3CCCCC3)O[C@@H]1CO2
AC50 [41]: > 30 µM (inactive)

COC(=O)C1=C(C)N(Cc2ccc(C(F)(F)F)cc2)C(NCc2ccc(C(F)(F)F)cc2)=NC1c1ccccc1C(F)(F)F (centres undefined)
IC50 [42]: > 96.6 µM (inactive)

c1ccc(-c2cc(NCCCN3CCCCC3)c3ccccc3n2)cc1
IC50 [43]: 1.56 µM (active)
IC50 [44]: 2.98 µM (active)

From ChEMBL document CHEMBL1201862, “PubChem BioAssay data set” (2004)
